For one assay, the target named is T1, human CRF2a receptor (Homo sapiens, UniProt Q13324).
T1 construct: expressed in transfected cells; host or cells: TeloHEAC cells
T1 sequence (Q13324 1-411): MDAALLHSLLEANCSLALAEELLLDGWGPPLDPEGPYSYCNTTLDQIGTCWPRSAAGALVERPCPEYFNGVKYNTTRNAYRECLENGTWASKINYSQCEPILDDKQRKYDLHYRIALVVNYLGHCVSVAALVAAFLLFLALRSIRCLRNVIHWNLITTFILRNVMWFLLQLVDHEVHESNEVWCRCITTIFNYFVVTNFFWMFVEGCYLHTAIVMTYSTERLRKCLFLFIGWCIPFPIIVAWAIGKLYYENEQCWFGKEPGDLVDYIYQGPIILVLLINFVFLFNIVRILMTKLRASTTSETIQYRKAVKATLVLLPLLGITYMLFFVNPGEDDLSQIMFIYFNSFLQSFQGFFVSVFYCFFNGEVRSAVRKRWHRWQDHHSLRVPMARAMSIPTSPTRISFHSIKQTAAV
The experiment in a line: Activity at human CRF2a receptor, cAMP functional assay in TeloHEAC cells. It is filed as cell-based. The following applies: TeloHEAC cells stably expressing human CRF2a receptor, relative to urocortin 2 (100 nM = 100%). Summed up: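 TeloHEAC cells stably expressing human CRF2a (10000 cells/well, suspended in HBSS/20 mM HEPES with 2 mM IBMX) were exposed to compounds for 30 min at 37 °C. cAMP was read as the 665/620 nm fluorescence ratio after 1 h at room temperature. EC50 was derived relative to 100 nM urocortin 2, set as 100%.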

The target of the next assay is T2, CFR1R receptor (Homo sapiens, UniProt P34998).
T2 construct: host or cells: CHO-K1 (clone 2)
T2 sequence (P34998 24-415): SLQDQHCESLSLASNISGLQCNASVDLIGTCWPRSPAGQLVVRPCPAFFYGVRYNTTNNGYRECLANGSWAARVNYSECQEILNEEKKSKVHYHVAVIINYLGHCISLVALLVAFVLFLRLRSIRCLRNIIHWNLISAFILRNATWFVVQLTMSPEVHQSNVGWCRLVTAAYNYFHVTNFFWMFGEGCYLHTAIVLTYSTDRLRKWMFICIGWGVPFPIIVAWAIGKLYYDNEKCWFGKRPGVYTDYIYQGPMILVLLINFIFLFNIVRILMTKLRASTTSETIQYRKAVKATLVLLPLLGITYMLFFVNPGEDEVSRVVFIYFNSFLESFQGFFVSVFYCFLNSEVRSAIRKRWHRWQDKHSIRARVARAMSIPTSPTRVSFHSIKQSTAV
The experiment in a line: Activity at anti-target CFR1R receptor, cAMP assay in CRF1R-overexpression CHO-K1 cells. The following applies: 100% = Sauvagine at 100 nM; for EC50: cAMP. It is filed as cell-based. An outline of the steps:
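cAMP readout in CRF1R-overexpressing CHO-K1 cells (clone 2), run as for the TeloHAEC assay at 4000 cells/well final. Cells came from cryopreserved banks. Sauvagine at 100 nM defined 100% activation.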
For orientation: Changes in cAMP serve as a functional read-out for many G protein-coupled receptors.

*1 amine or outer side, *2 acyl side, *3 side chain or, on linkers, in order; H or OH if unused. Where a SMILES comes first, the peptide text is derived from it. Side-chain parts run from the residue outwards. [ ]: non-standard residue; d: D form. The star is where a group is joined. C18 diacid = O=C(O)CCCCCCCCCCCCCCCCC(=O)*; C16 diacid = O=C(O)CCCCCCCCCCCCCCC(=O)*; γGlu = O=C(O)[C@H](CCC(=O)[*:2])N[*:1]; NMeI = CC[C@H](C)[C@H](NC)C(=O)O; αMeL = CC(C)C[C@](C)(N)C(=O)O; Pentanoyl = CCCCC(=O)*; AEEA = NCCOCCOCC(=O)O; Aib = CC(C)(N)C(=O)O; Butyryl = CCCC(=O)*

In general, EC50 refers to the concentration at which the effect is half-maximal. A lower EC50 goes with higher potency in that assay. As to `CCCC(=O)N[C@H](C(=O)N[C@@H](CC(C)C)C(=O)N[C@@H](CO)C(=O)N[C@@H](CC(C)C)C(=O)N[C@@H](CC(=O)O)C(=O)N[C@@H](C(=O)N1CCC[C@H]1C(=O)N[C@H](C(=O)N[C@@H](CCCCN)C(=O)N[C@@H](CC(C)C)C(=O)N[C@@H](CCCCNC(=O)CC[C@H](NC(=O)CCCCCCCCCCCCCCC(=O)O)C(=O)O)C(=O)N[C@@H](CCC(N)=O)C(=O)N[C@H](C(=O)N[C@@H](CC(C)C)C(=O)N[C@@H](CC(C)C)C(=O)N[C@@H](CCCCN)C(=O)N[C@@H](CCC(N)=O)C(=O)N[C@@H](CCC(=O)O)C(=O)N[C@@H](CCCNC(=N)N)C(=O)N[C@@H](CCC(N)=O)C(=O)N[C@@H](CCCCN)C(=O)N[C@@H](CCCCN)C(=O)N[C@@H](CCC(N)=O)C(=O)N[C@@H](CCCNC(=N)N)C(=O)N[C@@H](CCC(=O)O)C(=O)N[C@@H](CCC(N)=O)C(=O)N[C@@H](C)C(=O)N[C@@H](CCC(=O)O)C(=O)N[C@@H](CCCCN)C(=O)N[C@@H](CC(N)=O)C(=O)N[C@@H](CCCCN)C(=O)N[C@@H](CCC(N)=O)C(=O)N[C@H](C(=O)N[C@@H](CC(C)C)C(=O)N[C@@H](CCC(=O)O)C(=O)N[C@@H](CCC(N)=O)C(=O)N[C@H](C(N)=O)C(C)C)[C@@H](C)CC)[C@@H](C)CC)[C@@H](C)CC)C(C)C)C(C)C` [compound 7] (Butyryl-VLSLD[dV]PIKLK([γGlu-C16 diacid])QILLKQERQKKQREQAEKNKQILEQV-NH2), at human CRF2a receptor, it took 0.06 nM to reach a half-maximal effect (EC50). Besides, the “Emax (% I)” value at CFR1R receptor came out at 59 % I.
At human CRF2a receptor, `CC[C@H](C)[C@H](NC)C(=O)N[C@H](C(=O)N[C@@H](CC(C)C)C(=O)N[C@@H](CO)C(=O)N[C@@H](CC(C)C)C(=O)N[C@@H](CC(=O)O)C(=O)N[C@@H](C(=O)N1CCC[C@H]1C(=O)N[C@H](C(=O)N[C@@H](CCCCN)C(=O)N[C@@H](CC(C)C)C(=O)N[C@@H](CCCCNC(=O)CC[C@H](NC(=O)CCCCCCCCCCCCCCCCC(=O)O)C(=O)O)C(=O)N[C@@H](CCC(N)=O)C(=O)N[C@H](C(=O)N[C@@H](CC(C)C)C(=O)N[C@@H](CC(C)C)C(=O)N[C@@H](CCCCN)C(=O)N[C@@H](CCC(N)=O)C(=O)N[C@@H](CCC(=O)O)C(=O)N[C@@H](CCCNC(=N)N)C(=O)N[C@@H](CCC(N)=O)C(=O)N[C@@H](CCCCN)C(=O)N[C@@H](CCCCN)C(=O)N[C@@H](CCC(N)=O)C(=O)N[C@@H](CCCNC(=N)N)C(=O)N[C@@H](CCC(=O)O)C(=O)N[C@@H](CCC(N)=O)C(=O)N[C@@H](C)C(=O)N[C@@H](CCC(=O)O)C(=O)N[C@@H](CCCCN)C(=O)N[C@@H](CC(N)=O)C(=O)NC(C)(C)C(=O)N[C@@H](CCC(N)=O)C(=O)N[C@H](C(=O)N[C@@H](CC(C)C)C(=O)N[C@@H](CCC(=O)O)C(=O)N[C@@H](CCC(N)=O)C(=O)N[C@H](C(N)=O)C(C)C)[C@@H](C)CC)[C@@H](C)CC)[C@@H](C)CC)C(C)C)C(C)C` [compound 23] (H-[NMeI]VLSLD[dV]PIKLK([γGlu-C18 diacid])QILLKQERQKKQREQAEKN[Aib]QILEQV-NH2) yielded an EC50 of 0.33 nM. Also, at CFR1R receptor, the “Emax (% I)” value is recorded as 35 % I and the EC50 is more than 250 nM.
On human CRF2a receptor, `CC[C@H](C)[C@H](NC(C)=O)C(=O)N[C@H](C(=O)N[C@@H](CC(C)C)C(=O)N[C@@H](CO)C(=O)N[C@@H](CC(C)C)C(=O)N[C@@H](CC(=O)O)C(=O)N[C@H](C(=O)N1CCC[C@H]1C(=O)N[C@H](C(=O)N[C@@H](CCCCN)C(=O)N[C@@](C)(CC(C)C)C(=O)N[C@@H](CCCCNC(=O)CC[C@H](NC(=O)CCCCCCCCCCCCCCC(=O)O)C(=O)O)C(=O)N[C@@H](CCCCN)C(=O)N[C@H](C(=O)N[C@@H](CC(C)C)C(=O)N[C@@H](CC(C)C)C(=O)N[C@@H](CCC(=O)O)C(=O)N[C@@H](CCC(N)=O)C(=O)N[C@@H](CCC(=O)O)C(=O)N[C@@H](CCCCN)C(=O)N[C@@H](CCC(N)=O)C(=O)N[C@@H](CCCCN)C(=O)N[C@@H](CCCCN)C(=O)N[C@@H](CCC(N)=O)C(=O)N[C@@H](CCCNC(=N)N)C(=O)N[C@@H](CCC(=O)O)C(=O)N[C@@H](CCC(N)=O)C(=O)N[C@@H](C)C(=O)N[C@@H](CCC(=O)O)C(=O)N[C@H](C(=O)N[C@@H](CC(N)=O)C(=O)N[C@H](C(=O)N[C@@H](CCC(N)=O)C(=O)N[C@H](C(=O)N[C@@H](CC(C)C)C(=O)N[C@@H](C)C(=O)N[C@@H](CCC(N)=O)C(=O)N[C@H](C(N)=O)C(C)C)[C@@H](C)CC)C(C)C)[C@@H](C)O)[C@@H](C)CC)[C@@H](C)CC)C(C)C)C(C)C` [compound 49] (Ac-IVLSLDVPIK[αMeL]K([γGlu-C16 diacid])KILLEQEKQKKQREQAETNVQILAQV-NH2) showed an EC50 of 0.92 nM. At CFR1R receptor, the “Emax (% I)” value is recorded as −3 % I and the EC50 is more than 250 nM.
Consider `CC[C@H](C)[C@H](NC(C)=O)C(=O)N[C@H](C(=O)N[C@@H](CC(C)C)C(=O)N[C@@H](CO)C(=O)N[C@@H](CC(C)C)C(=O)N[C@@H](CC(=O)O)C(=O)N[C@@H](C(=O)N1CCC[C@H]1C(=O)N[C@H](C(=O)N[C@@H](CCCCN)C(=O)N[C@@H](CC(C)C)C(=O)N[C@@H](CCCCNC(=O)COCCOCCNC(=O)COCCOCCNC(=O)CC[C@H](NC(=O)CC[C@H](NC(=O)CCCCCCCCCCCCCCCCC(=O)O)C(=O)O)C(=O)O)C(=O)N[C@@H](CCCCN)C(=O)N[C@H](C(=O)N[C@@H](CC(C)C)C(=O)N[C@@H](CC(C)C)C(=O)N[C@@H](CCC(=O)O)C(=O)N[C@@H](CCC(N)=O)C(=O)N[C@@H](CCC(=O)O)C(=O)N[C@@H](CCCCN)C(=O)N[C@@H](CCC(N)=O)C(=O)N[C@@H](CCCCN)C(=O)N[C@@H](CCCCN)C(=O)N[C@@H](CCC(N)=O)C(=O)N[C@@H](CCCNC(=N)N)C(=O)N[C@@H](CCC(=O)O)C(=O)N[C@@H](CCC(N)=O)C(=O)N[C@@H](C)C(=O)N[C@@H](CCC(=O)O)C(=O)N[C@H](C(=O)N[C@@H](CC(N)=O)C(=O)NC(C)(C)C(=O)N[C@@H](CCC(N)=O)C(=O)N[C@H](C(=O)N[C@@H](CC(C)C)C(=O)N[C@@H](C)C(=O)N[C@@H](CCC(N)=O)C(=O)N[C@H](C(N)=O)C(C)C)[C@@H](C)CC)[C@@H](C)O)[C@@H](C)CC)[C@@H](C)CC)C(C)C)C(C)C` [compound 204] (Ac-IVLSLD[dV]PIKLK([AEEA-AEEA-γGlu-γGlu-C18 diacid])KILLEQEKQKKQREQAETN[Aib]QILAQV-NH2), for which the EC50 on human CRF2a receptor is 1.84 nM; on CFR1R receptor it was more than 250 nM. Moreover, the “Emax (% I)” value at CFR1R receptor is −2 % I.
For `CCCCC(=O)N[C@H](C(=O)N[C@@H](CC(C)C)C(=O)N[C@@H](CO)C(=O)N[C@@H](CC(C)C)C(=O)N[C@@H](CC(=O)O)C(=O)N[C@@H](C(=O)N1CCC[C@H]1C(=O)N[C@H](C(=O)N[C@@H](CCCCN)C(=O)N[C@@H](CC(C)C)C(=O)N[C@@H](CCCCNC(=O)COCCOCCNC(=O)COCCOCCNC(=O)CC[C@H](NC(=O)CCCCCCCCCCCCCCCCC(=O)O)C(=O)O)C(=O)N[C@@H](CCCCN)C(=O)N[C@H](C(=O)N[C@@H](CC(C)C)C(=O)N[C@@H](CC(C)C)C(=O)N[C@@H](CCC(=O)O)C(=O)N[C@@H](CCC(N)=O)C(=O)N[C@@H](CCC(=O)O)C(=O)N[C@@H](CCCCN)C(=O)N[C@@H](CCC(N)=O)C(=O)N[C@@H](CCCCN)C(=O)NC(C)(C)C(=O)N[C@@H](CCC(N)=O)C(=O)N[C@@H](CCCNC(=N)N)C(=O)N[C@@H](CCC(=O)O)C(=O)N[C@@H](CCC(N)=O)C(=O)N[C@@H](C)C(=O)N[C@@H](CCC(=O)O)C(=O)N[C@H](C(=O)N[C@@H](CC(N)=O)C(=O)NC(C)(C)C(=O)N[C@@H](CCC(N)=O)C(=O)N[C@H](C(=O)N[C@@H](CC(C)C)C(=O)N[C@@H](C)C(=O)N[C@@H](CCC(N)=O)C(=O)N[C@H](C(N)=O)C(C)C)[C@@H](C)CC)[C@@H](C)O)[C@@H](C)CC)[C@@H](C)CC)C(C)C)C(C)C` [compound 202] (Pentanoyl-VLSLD[dV]PIKLK([AEEA-AEEA-γGlu-C18 diacid])KILLEQEKQK[Aib]QREQAETN[Aib]QILAQV-NH2), in that order: 1.73 nM, more than 250 nM and 8 % I.

The values above are taken from US20260001928A1 (CORTERIA PHARMACEUTICALS, priority 2022, published 2026).
